The text below walks through data of PMC6953607 (Nature microbiology, 2019).

One may read the MIC as the lowest concentration that inhibits growth of the organism. A low value points to inhibition by little substance.

The subject of one data set is S. aureus ATCC29213. The data set is described as follows: MIC, micro-dilution broth. The format is cell-based. In general terms: Broth dilution looks for growth in wells or tubes with falling amounts of substance.
The test system of a further data set is P. aeruginosa PA01. The data set is described as follows: MIC, micro-dilution broth. The format is cell-based.
The next data set deals with K. pneumoniae. The data set is described as follows: MIC, micro-dilution broth. The format is cell-based.
The test system of the next data set is E. coli MG1655. The data set is described as follows: Accumulation assay, LC-MS/MS. The format is cell-based. Particulars: E. coli MG1655, 50 μM compound, up to 2 h.
For another data set, the system named is E. cloacae. The data set is described as follows: MIC, micro-dilution broth. The format is cell-based. The following applies: E. cloacae ATCC 29893.
A further data set relates to E. coli. The data set is described as follows: MIC, micro-dilution broth. The format is cell-based. Particulars: Escherichia coli, E. coli strains with intact outer membranes.
The test system of a further data set is S. aureus. The following applies: cited from earlier work.
The conditions of data set [1]: open-label clinical trial ref 26; cited from earlier work.
Another data set relates to A. baumannii. The data set is described as follows: MIC, micro-dilution broth. The format is cell-based.
The nature of a further data set: Mouse MTD. The format is in vivo, C57BL/6 mice. Particulars: IP, mice monitored 2 weeks.
In data set [2] the test system is E. coli MG1655 harboring FabI variants. The data set is described as follows: MIC against Debio-1452-NH3-resistant colonies. The format is cell-based.

SMILES strings stand for the structures. Converted amounts (≈) assume the structure as drawn.

On to `Cc1c(CN(C)C(=O)/C=C/c2cnc3c(c2)CCC(=O)N3)oc2ccccc12` [Debio-1452], for which the MIC with S. aureus ATCC29213 (S. aureus ATCC 29213) is 0.008 µg/mL (≈ 0.0213 µM); against P. aeruginosa PA01, greater than 32 µg/mL; with K. pneumoniae (K. pneumoniae BAA-1705), greater than 32 µg/mL; in the data set on K. pneumoniae (K. pneumoniae S47889) it was greater than 32 µg/mL; in the data set on E. cloacae, greater than 32 µg/mL; in the data set with E. coli it was greater than 32 µg/mL. Besides, the MIC in the data set on A. baumannii (A. baumannii F19521) and in the data set on A. baumannii (A. baumannii W41979) was greater than 32 µg/mL throughout. Besides, the “fold increase in MIC in the presence of serum” value in the data set with S. aureus ATCC29213 (S. aureus, human serum) is on record as 8 fold. The accumulation entry in the data set on E. coli MG1655 is recorded as “no statistically significant accumulation over negative controls”. Besides, the “efficacy in animal models of S. aureus infections” value in the data set on S. aureus is “marked efficacy”. Further, the efficacy in patients entry in [1] is “marked efficacy”.
With `Cc1c(CN(C)C(=O)/C=C/c2cnc3c(c2)CC(CCN)C(=O)N3)oc2ccccc12.Cl` (stereo not drawn) [Compound 3], the “well tolerated single dose” value in “Mouse MTD” was found to be 100 mg/kg.
Take `Oc1cc(Cl)ccc1Oc1ccc(Cl)cc1Cl` [Triclosan]: the figures for the cross-resistance result in data set [2] (A116V mutants resistant to Debio-1452-NH3) and in data set [2] (G148S mutants resistant to Debio-1452-NH3) were “no cross-resistance” and “minimal cross-resistance”, respectively.
Regarding `Cc1c(CN(C)C(=O)/C=C/c2cnc3c(c2)CC(NC(=O)OC(C)(C)C)C(=O)N3)oc2ccccc12` (stereo not drawn) [Compound 8], the MIC was greater than 32 µg/mL in the data set on P. aeruginosa PA01; greater than 32 µg/mL against K. pneumoniae (K. pneumoniae S47889); greater than 32 µg/mL in the data set on K. pneumoniae (Klebsiella pneumoniae, BAA1705, K. pneumoniae BAA-1705); greater than 32 µg/mL in the data set with E. cloacae; greater than 32 µg/mL against A. baumannii (A. baumannii W41979); greater than 32 µg/mL against A. baumannii (Acinetobacter baumannii, A. baumannii F19521).
